According to publication PMC12881674, “Activation of TRPV3 channels in bladder cancer cells stimulates ATP release” (Molecular Pharmacology, 2025):

Biological target: T1, mouse TRPV3 (Mus musculus, UniProt Q8K424)
T1 construct: expressed in transfected cells; host or cells: HEK293
T1 sequence (Q8K424 1-791): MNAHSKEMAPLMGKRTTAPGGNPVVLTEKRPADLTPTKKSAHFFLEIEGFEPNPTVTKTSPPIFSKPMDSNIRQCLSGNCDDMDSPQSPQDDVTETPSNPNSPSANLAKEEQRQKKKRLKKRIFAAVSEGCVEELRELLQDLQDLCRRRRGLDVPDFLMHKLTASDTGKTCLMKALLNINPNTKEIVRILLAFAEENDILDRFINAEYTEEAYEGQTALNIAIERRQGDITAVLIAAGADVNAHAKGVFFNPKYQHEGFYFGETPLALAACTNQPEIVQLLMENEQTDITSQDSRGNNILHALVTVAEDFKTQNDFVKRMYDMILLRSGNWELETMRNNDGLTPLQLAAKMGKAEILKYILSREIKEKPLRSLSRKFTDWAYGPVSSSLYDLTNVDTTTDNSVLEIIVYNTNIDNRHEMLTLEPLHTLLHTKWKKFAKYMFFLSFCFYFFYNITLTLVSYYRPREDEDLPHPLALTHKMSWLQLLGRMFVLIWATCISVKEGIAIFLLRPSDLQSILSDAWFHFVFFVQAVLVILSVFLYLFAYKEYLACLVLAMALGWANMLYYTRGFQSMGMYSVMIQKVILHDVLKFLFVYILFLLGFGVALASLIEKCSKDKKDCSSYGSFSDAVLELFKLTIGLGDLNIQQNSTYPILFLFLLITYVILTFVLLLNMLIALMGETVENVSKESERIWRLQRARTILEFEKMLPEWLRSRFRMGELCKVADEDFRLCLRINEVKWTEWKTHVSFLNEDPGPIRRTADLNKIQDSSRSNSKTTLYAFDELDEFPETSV
Experiment: whole-cell patch-clamp recordings in HEKmTRPV3 cells
Format: cell-based
Description: Whole-cell patch-clamp recordings were performed at room temperature using an […] amplifier connected to a Digidata 1440A digitizer under the control of the pCLAMP 10 software suite (Molecular Devices). Cells were plated onto PLL-coated glass coverslips 24–48 hours prior to recordings. […] The extracellular buffer consisted of 140 mM NaCl, 5 mM CsCl, 2 mM MgCl2, 1 mM CaCl2, and 10 mM HEPES, adjusted to pH 7.4 with NaOH. Recordings were performed with a liquid junction potential of +3.6 mV, which was not corrected. Voltage ramps ranging from −100 to 100 mV (500-millisecond duration) were applied at 1-second intervals. Series resistance was <15 MΩ and compensated by 70%. Only recordings with stable access resistance and minimal leak currents were included in the analysis. […]
Fig. 2 Electrophysiological analysis of AV3-1–activated TRPV3 currents in HEKmTRPV3 cells. […] Current amplitudes were recorded using voltage ramps from −100 mV to +100 mV (500-millisecond duration) such as in B and expressed as current density (pA/pF) measured at +100 mV and −100 mV. […] (C) Quantification of current densities (pA/pF) at −100 mV (inward current) and +100 mV (outward current) at the time points (1, 6–8) as indicated in (A). […] Statistical significance was determined using Kruskal-Wallis ANOVA followed by Conover test; ∗P < .05. […]

TRPV3 currents evoked by activator (5 μM AV3-1, voltage ramps -100 to +100 mV): robust TRPV3-like currents
reversibility of effect on TRPV3 upon washout (washout of 5 μM AV3-1): fully reversible
Compound: COC(=O)C12CN(Cc3ccccc3)CC1(C(=O)OC)CN(Cc1ccccc1)C2 (centres unmarked) [AV3-1]
